Laboratory results published in PubChem BioAssay (NCI).
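Grown in 96-well plates, cells were treated for 48 hours with each compound at five concentrations. Insufficient inhibition: endpoint recorded as highest concentration tested. Abbreviation: GI50, concentration required for 50% inhibition of growth. Definition used: TGI = concentration required for complete inhibition of growth.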

Legend:
Assay in all cases: growth of human tumour cells (NCI), 48 h
A498 renal = test system: A498 renal
BT-549 breast = test system: BT-549 breast
K-562 leukemia = test system: K-562 leukemia
LOX IMVI melanoma = test system: LOX IMVI melanoma
OVCAR-3 ovarian = test system: OVCAR-3 ovarian
OVCAR-5 ovarian = test system: OVCAR-5 ovarian
SK-MEL-5 melanoma = test system: SK-MEL-5 melanoma
SNB-19 CNS = test system: SNB-19 CNS
SW-620 colon = test system: SW-620 colon
UACC-257 melanoma = test system: UACC-257 melanoma

Row | Structure (SMILES) | GI50 (A498 renal) | TGI (A498 renal) | GI50 (BT-549 breast) | TGI (BT-549 breast) | GI50 (K-562 leukemia) | TGI (K-562 leukemia) | GI50 (LOX IMVI melanoma) | TGI (LOX IMVI melanoma) | GI50 (OVCAR-3 ovarian) | TGI (OVCAR-3 ovarian) | GI50 (OVCAR-5 ovarian) | TGI (OVCAR-5 ovarian) | TGI (SK-MEL-5 melanoma) | GI50 (SNB-19 CNS) | TGI (SNB-19 CNS) | GI50 (SW-620 colon) | TGI (SW-620 colon) | TGI (UACC-257 melanoma) | GI50 (UACC-257 melanoma) | GI50 (SK-MEL-5 melanoma)
1 | CN(C)CCOc1ccccc1NC1=C(Cl)C(=O)C(Nc2ccccc2OCCN(C)C)=C(Cl)C1=O | > 38.2 µM | > 53.8 µM | 20.7 µM | > 49.7 µM | 2260 nM | 5.41 µM | 592 nM | 1.25 µM | 0.444 µM | 0.879 µM | 10.2 µM | > 38.6 µM | > 23.8 µM | 24.9 µM | > 49.8 µM | 566 nM | 1.24 µM | > 41.1 µM |  | 
2 | COc1cc2nc3cc([N+](=O)[O-])ccc3c(NCCNCC(C)O)c2cc1OC (centres undefined) | 1.37 µM | 3.02 µM | 1.75 µM | 3.9 µM |  |  | 768 nM | 2.51 µM | 0.482 µM | 1.74 µM | 2.61 µM | 9.41 µM |  | 0.436 µM | 2.74 µM | 431 nM | 3.09 µM | 3.67 µM | 1.63 µM | 
3 | OCC1CCCC1O (centres undefined) |  | > 100 µM |  | > 100 µM |  | > 100 µM |  |  |  | > 100 µM |  | > 100 µM | > 100 µM |  | > 100 µM |  | > 100 µM | > 100 µM |  | 
4 | CCCCCCCCCCCCCCCCN(CC)CC | 17.9 µM | 37.2 µM | 1.87 µM | 3.89 µM |  |  | 1730 nM | 3.38 µM | 2.87 µM | 7.99 µM | 1.94 µM | 4.26 µM | 3.79 µM | 3.29 µM | 13.9 µM | 2030 nM | 3.9 µM | 4.98 µM | 1.99 µM | 1940 nM
5 | COC(=O)CNc1nc(N(C)O)nc(N(C)O)n1 | 20.3 µM | > 100 µM | 13.8 µM | > 100 µM | 2430 nM | > 100 µM | 1710 nM | > 100 µM |  |  | 9.24 µM | > 100 µM | 15.9 µM | 27.3 µM | > 100 µM | 5070 nM | > 100 µM | 80.3 µM | 11.6 µM | 2200 nM
6 | COc1ccc(NC(=O)c2ccc(NC3=C(Cl)C(=O)N(Cc4ccccc4)C3=O)cc2)c(OC)c1 | 61.1 µM | > 100 µM | 13.1 µM | 45 µM | 8180 nM | 43 µM | 30100 nM | > 100 µM | 15.1 µM | 33.2 µM | 49.3 µM | > 100 µM | 75.2 µM | 57.4 µM | > 100 µM | 29200 nM | > 100 µM | > 100 µM | 47 µM | 26200 nM
7 | O=C(c1ccccc1)c1nc2ccc(C(F)(F)F)cc2nc1N1CCN(c2ccccc2)CC1 | 27.9 µM | 68.6 µM | 32 µM | 84.5 µM |  |  | 18500 nM | 38.4 µM | 19.3 µM | 39.5 µM | 70.5 µM | > 100 µM | 32.7 µM | 71.5 µM | > 100 µM | 34700 nM | > 100 µM | > 100 µM | 94.9 µM | 15900 nM
8 | O=C1NC(=NCCc2ccccn2)S/C1=C\c1ccc2ncccc2c1 | 4.62 µM | 21.1 µM | 10.5 µM | > 25 µM | 9990 nM | > 25 µM | 13300 nM | > 25 µM | 9.88 µM | > 25 µM | > 22.3 µM | > 25 µM | > 25 µM | 11.1 µM | > 25 µM | 8330 nM | > 25 µM | > 25 µM | 15.4 µM | 10800 nM
9 | COc1ccc2nc3cccc([N+](=O)[O-])c3c(NC(C)CN(C)C)c2c1 (centres undefined) | 2.09 µM | 4.59 µM | 2.86 µM | 6.74 µM | 1560 nM | 4.03 µM | 1910 nM | 5.04 µM | 3.15 µM | 10.4 µM | 1.73 µM | 5.21 µM | 2.49 µM | 2.63 µM | 7.91 µM | 1900 nM | 12.5 µM | 7.02 µM | 2.67 µM | 1180 nM
10 | C=C1C(=O)C2=CC1CCC(=O)C1(C)CCC(OC(C)=O)C(C)(C)C1CC2O (centres undefined) |  | 12.6 µM |  | 9.33 µM |  |  |  | > 22.5 µM |  | 15.8 µM |  | 18.9 µM | 6.09 µM |  | 15 µM |  | > 100 µM | 17 µM |  | 
11 | O=S(=O)(NCCCNc1cc(-c2cn(-c3ccccc3)nc2-c2cccc(O)c2)ccn1)c1ccc(Br)cc1 | 0.386 µM | 2.89 µM | 1.68 µM | 4.32 µM | 444 nM | 2.89 µM | 1490 nM | 2.9 µM | 1.66 µM | 3.61 µM | 2.12 µM | 5.55 µM | 2.63 µM | 2.98 µM | 14.7 µM | 1620 nM | 3.65 µM |  |  | 1270 nM
